Source: EP0855181A2 (priority 1997, dated 1998)
Read-outs that look alike come from different tables or passages of the source.

Columns and labels:
Human neutrophils (PMN) = test system: Human neutrophils (PMN)
Procedure: Human neutrophils (PMN) are isolated from EDTA-anticoagulated blood by Ficoll-density-centrifugation and by dextran sedimenation as described by Böyum, A. in Scand. J. Clin. Lab. Invest. 21(Suppl. 97):77-89, 1968.Variable concentrations of glycine (4.0 mM, 0.4 mM and 0.04 mM in a volume of 50 µl) and as a control 50 µl PBS are incubated with human neutrophils (2x10^7 cells/ml in a volume of 500 µl in Ca/Mg (1/0.5mM) and 0.25mM luminol) for 20 min at 37°C and stimulation is subsequently carried out with fMLP (N-formyl-methionyl-leucyl-phenylalanine, 10^-5M), NaF (20mM) or PMA (10 ng), each in a volume of 50µl, for 30 min at 37°C. fMLP is a receptor-mediated stimulus, NaF is a G-protein-mediated activator of cells and PMA activates the protein kinase C. As a control neutrophils are incubated with the variable glycine concentrations without subsequent stimulation. Respiratory burst is measured by chemiluminescence response of oxygen radicals essentially as described in Immunology, 1992, 76, 86-94.

Neutrophils (PMNs) = test system: Neutrophils (PMNs)
Procedure: Neutrophils (PMNs, isolated as described in example 2, in a concentration of 2x10^7/ml in a volume of 500µl + 50 µl 1mM Ca/0.5mM Mg) are preincubated with glycine (0.0004mM, 0.004mM, 0.04mM, 0.4mM and 4mM in a volume of 50µl) for 20 or 30 minutes at 37°C. Subsequently they are treated with cytochalasin (50 µl, 10^-5M) and stimulated with 50 µl fMLP (10^-5M), NaF (20mM), or primed with 50µl GM-CSF (10ng) and subsequently stimulated with 50µl NaF (20mM), fMLP (10^-5M) or Ca-ionophore (5µM) and incubated for a further 20 minutes at 37°C. Leukotrienes are measured by HPLC as described in Immunology 67:401-407.

[1] = test system: Peripheral mononuclear cells
Procedure: Peripheral mononuclear cells (as in example 2 but in a concentration of 10^6/ml) are pre-incubated with SEB at variable concentrations (50 µl of 1 ng/ml, 0,1 ng/ml and 0.01 ng/ml) in the presence of variable concentrations of glycine (as above) for 24h, 48h and 72h or pre-incubated with glycine and subsequently stimulated with different concentrations of SEB.

[2] = test system: Peripheral mononuclear cells; details: glycine 0.00004-40 mM, 14 days, interleukin-4 and anti-CD40
Procedure: To this end, peripheral mononuclear cells (as in example 1) were incubated with variable concentrations of glycine (0.00004mM, 0.0004mM, 0.004mM, 0.04mM, 0.4mM, 4mM, 40mM). The incubation time is carried out over 14 days. The cells were stimulated in the presence of glycine with interleukin-4 and anti-CD40 as B-cell activator. In the supernatant, the IgM, IgA, IgG and IgE synthesis was analysed.

[3] = test system: superantigen primed neutrophils
[4] = test system: Peripheral mononuclear cells (PMNs)
[5] = test system: Peripheral mononuclear cells (PMNs); remark: listed apart in the source
[6] = test system: lymphocytes, monocytes, basophils (LMBs)
[7] = test system: lymphocytes, monocytes, basophils (LMBs); remark: listed apart in the source
[8] = cells primed with GM-CSF, variable glycine, then NaF
[9] = glycine pre-incubation over 30 minutes

## NCC(=O)O [glycine]
Human neutrophils (PMN); glycine 0.04 mM, then fMLP
  respiratory burst: further modulation
Human neutrophils (PMN); glycine 4.0, 0.4, 0.04 mM, 20 min at 37°C, no subsequent stimulation
  oxygen metabolites (respiratory burst): no effect
Human neutrophils (PMN); glycine pre-incubation, then NaF (20mM)
  respiratory burst: dose-dependent suppression and also an increase
Human neutrophils (PMN); glycine pre-incubation, then PMA (10 ng)
  respiratory burst: No changes
Neutrophils (PMNs); [8]
  LTB4 generation: inhibition
  LTC4 generation: inhibition
Neutrophils (PMNs); cells primed with GM-CSF, variable glycine, then calcium ionophore
  LTB4 generation: marginal increase
Neutrophils (PMNs); cells primed with GM-CSF, variable glycine, then fMLP
  LTB4 release: fluctuating
Neutrophils (PMNs); glycine 4.0 mM
  fMLP-induced LTE4 generation: suppressing influence
Neutrophils (PMNs); [9]
  LTB4 release: increase
  LTC4 release: suppression
  omega-LTB4 release: increase
Neutrophils (PMNs); neutrophils activated with calcium ionophore in the presence of glycine
  leukotriene-E4: very strong suppression
Neutrophils (PMNs); neutrophils in the presence of glycine, fMLP
  LTB4 generation: suppression
[1]; 48 hours glycine pre-incubation, subsequent RSV stimulation
  interferon-γ release: intense increase
[1]; 48 hours glycine pre-incubation, subsequent SEB stimulation (Fig. 2), refers to intense increase
  interferon-γ release: similarly indicated
[1]; RSV used instead of SEB
  interferon-γ release: dose-dependent increase
[1]; SEB with glycine, incubation of up to 48 hours
  interferon-γ release: Marginal effects
[1]; glycine pre-incubation over 72 hours, SEB as activator
  interferon-γ release: increase
[1]; glycine pre-incubation, subsequent SEB stimulation
  release of interferon-γ: extremely potent release
[1]; very long glycine pre-incubation and subsequent stimulation
  interferon-γ concentration: reduction
[2]
  induced IgE synthesis: no affect
  other immunoglobulins (IgM, IgA, IgG synthesis): no changes
[3]
  20-carboxy-LTB4: drop
  LTC4: increase
  cysteinyl leukotrienes: increase
  omega-LTB4 generation: increase
  release of 12-HETE: increase
[4]
  IL-8 release: significant increase
[4]; cells pre-incubated with interferon-γ, then staphylococcus enterotoxin B
  interleukin-8 release: dose-dependent stimulation
[4]; staphylococcus enterotoxin B stimulation
  interleukin-8 release: marginal increase
[5]; GM-CSF (10 ng) primed model, then SEB (10 ng)
  TNF release: suppression
[5]; RSV as stimulus
  TNF release: modulation
[5]; conditions of the interleukin-8 experiments
  TNF release: no significant changes
[5]; glycine 0.0004-0.4 mM pre-incubation, then SEB (10 ng)
  TNF: dose-dependent increase
[5]; glycine pre-incubation, then SEB
  SEB-induced TNF release: increase
[5]; glycine pre-incubation, then SEB, in dependence on stimulus
  TNF release: suppression
[5]; phospholipase C at variable concentrations as stimulus, 'also applies' refers to modulation
  TNF release: This also applies
[6]
  interleukin-10: increase
[6]; glycine combined with staphylococcus enterotoxin B (Fig. 1)
  release of interleukin-10: significant release
[7]
  SEB-induced TNF-α release: marked suppression
  TNF-α: increase
  phospholipase C induced TNF-α release: great suppression
  suppression of the TNF-α release: lower
[7]; LMBs incubated with interferon-γ 24 hours, then SEB
  staphylococcus enterotoxin B induced TNF-α release: great suppression
LMBs; GM-CSF priming, glycine 2 hours, then SEB, eliminated with low glycine concentrations
  interleukin-12 release: marginal reduction
LMBs; glycine incubation alone, low concentrations of glycine
  interleukin-12 release: stimulatory effect
